Data: ChEMBL document CHEMBL6078703, “Discovery of Novel Thiophene-Based Baloxavir Derivatives as Potent Cap-Dependent Endonuclease Inhibitors for Influenza Treatment” (J Med Chem, 2024)
Activity calls are given as the source filed them. The calls are words filed in the database; no cut-off is given here.

Experiments:
[1] = test system: Influenza A virus; test: Antiviral activity against influenza strain A/WSN/1933 (H1N1) infected in MDCK cells assessed as reduction of virus-induced cytopathic effect measured after 2 days incubation; assay type: functional, organism-based; conditions: 48 h
[2] = test system: Influenza A virus; test: Antiviral activity against influenza strain A/Aichi/ 2/1968 (H3N2) infected in MDCK cells assessed as reduction of virus-induced cytopathic effect measured after 2 days incubation; assay type: functional, organism-based; conditions: 48 h
[3] = Cytotoxicity against dog MDCK cells assessed as cell viability measured after 48 hrs by CCK-8 assay; assay type: toxicity, cell-based, Canis lupus familiaris
[4] = Selectivity index, ratio of CC50 for dog MDCK cells to EC50 for antiviral activity against influenza strain A/WSN/1933 (H1N1) infected in MDCK cells; assay type: toxicity, cell-based; conditions: read-out: Selectivity Index
[5] = Selectivity index, ratio of CC50 for dog MDCK cells to EC50 for antiviral activity against influenza strain A/Aichi/ 2/1968 (H3N2) infected in MDCK cells; assay type: toxicity, cell-based; conditions: read-out: Selectivity Index
[6] = Cytotoxicity against human 786O cells assessed as cell viability measured after 48 hrs by CCK-8 assay; assay type: toxicity, cell-based, 786-0
[7] = Cytotoxicity against human Huh-7 cells assessed as cell viability measured after 48 hrs by CCK-8 assay; assay type: toxicity, cell-based
[8] = Cytotoxicity against human HepG2 cells assessed as cell viability measured after 48 hrs by CCK-8 assay; assay type: toxicity, cell-based
[9] = Cytotoxicity against human Hep3B cells assessed as cell viability measured after 48 hrs by CCK-8 assay; assay type: toxicity, cell-based, Hep 3B2
[10] = Half life in CD-1 mouse at 15 mg/kg, po measured up to 24 hrs by LC-MS/MS analysis; assay type: ADME, organism-based; conditions: in vivo
[11] = Tmax in CD-1 mouse at 15 mg/kg, po measured up to 24 hrs by LC-MS/MS analysis; assay type: ADME, organism-based; conditions: in vivo
[12] = Cmax in CD-1 mouse at 15 mg/kg, po measured up to 24 hrs by LC-MS/MS analysis; assay type: ADME, organism-based; conditions: in vivo
[13] = AUC (0 to infinity) in CD-1 mouse at 15 mg/kg, po measured up to 24 hrs by LC-MS/MS analysis; assay type: ADME, organism-based; conditions: CD-1, mouse, in vivo
[14] = MRT (0 to infinity) in CD-1 mouse at 15 mg/kg, po measured up to 24 hrs by LC-MS/MS analysis; assay type: ADME, organism-based; conditions: in vivo
[15] = Oral bioavailability in CD-1 mouse at 15 mg/kg measured up to 24 hrs by LC-MS/MS analysis; assay type: ADME, organism-based; conditions: CD-1, mouse, in vivo
[16] = Half life in CD-1 mouse at 1 mg/kg, iv measured up to 24 hrs by LC-MS/MS analysis; assay type: ADME, organism-based; conditions: in vivo
[17] = Tmax in CD-1 mouse at 1 mg/kg, iv measured up to 24 hrs by LC-MS/MS analysis; assay type: ADME, organism-based; conditions: in vivo
[18] = Cmax in CD-1 mouse at 1 mg/kg, iv measured up to 24 hrs by LC-MS/MS analysis; assay type: ADME, organism-based; conditions: in vivo
[19] = AUC (0 to infinity) in CD-1 mouse at 1 mg/kg, iv measured up to 24 hrs by LC-MS/MS analysis; assay type: ADME, organism-based; conditions: CD-1, mouse, in vivo
[20] = MRT (0 to infinity) in CD-1 mouse at 1 mg/kg, iv measured up to 24 hrs by LC-MS/MS analysis; assay type: ADME, organism-based; conditions: in vivo
[21] = Metabolic stability in human liver microsomes assessed as half life measured up to 60 mins by LC-MS/MS analysis; assay type: ADME, Microsome
[22] = Metabolic stability in mouse liver microsomes assessed as half life measured up to 60 mins by LC-MS/MS analysis; assay type: ADME, Microsome
[23] = test system: HEK293T; test: Inhibition of H1N1 influenza virus RdRp extracted for human 293T cells assessed as luminescence signal after 24 hrs incubation by Firefly/Renilla luciferase assay; assay type: cell-based; conditions: Influenza A virus, dose 0.625-12.5 nM
[24] = test system: Mus musculus; test: In vivo inhibition of polymerase acid protein (PA) mRNA expression in H1N1 influenza virus infected in BALB/c mouse at 20 to 40 mg/kg single oral dose by qRT-PCR analysis; assay type: functional, organism-based; conditions: dose 20-40 mg/kg
[25] = test system: Mus musculus; test: In vivo inhibition of […] (PA) mRNA expression in H1N1 influenza virus infected in BALB/c mouse at 20 to 40 mg/kg single oral dose by qRT-PCR analysis; assay type: functional, organism-based; conditions: dose 20-40 mg/kg
[26] = test system: Mus musculus; test: In vivo inhibition of polymerase acid protein (PA) protein expression in H1N1 influenza virus infected in BALB/c mouse at 20 to 40 mg/kg single oral dose by Western blot analysis; assay type: functional, organism-based; conditions: dose 20-40 mg/kg
[27] = test system: Mus musculus; test: In vivo inhibition of […] (PA) protein expression in H1N1 influenza virus infected in BALB/c mouse at 20 to 40 mg/kg single oral dose by Western blot analysis; assay type: functional, organism-based; conditions: dose 20-40 mg/kg
[28] = Metabolic stability in human liver microsomes assessed as intrinsic clearance measured up to 60 mins by LC-MS/MS analysis; assay type: ADME, Microsome; conditions: read-out: CLH
[29] = Metabolic stability in mouse liver microsomes assessed as intrinsic clearance measured up to 60 mins by LC-MS/MS analysis; assay type: ADME, Microsome; conditions: read-out: CLH
[30] = test system: Influenza A virus; test: Antiviral activity against influenza virus clinical strain H3N2 (A/Guangdong/2/2023) infected in MDCK cells assessed as reduction of virus-induced cytopathic effect measured after 2 days incubation; assay type: functional, organism-based; conditions: 48 h
[31] = Acute toxicity in CD-1 mouse assessed as mouse survival at 2000 mg/kg, po single dose measured for 2 weeks; assay type: organism-based; conditions: in vivo, 336 h
[32] = Acute toxicity in CD-1 mouse assessed as clinical signs of toxicity at 2000 mg/kg, po single dose measured for 2 weeks; assay type: organism-based; conditions: in vivo, 336 h
[33] = Acute toxicity in CD-1 mouse assessed as abnormal lesions in lungs at 2000 mg/kg, po single dose measured for 2 weeks by macroscopic examination; assay type: organism-based; conditions: in vivo, 336 h
[34] = Acute toxicity in CD-1 mouse assessed as abnormal lesions in intestine at 2000 mg/kg, po single dose measured for 2 weeks by macroscopic examination; assay type: organism-based; conditions: in vivo, 336 h
[35] = Acute toxicity in CD-1 mouse assessed as abnormal lesions in kidney at 2000 mg/kg, po single dose measured for 2 weeks by macroscopic examination; assay type: organism-based; conditions: in vivo, 336 h
[36] = Acute toxicity in CD-1 mouse assessed as abnormal lesions in spleen at 2000 mg/kg, po single dose measured for 2 weeks by macroscopic examination; assay type: organism-based; conditions: in vivo, 336 h
[37] = test system: Influenza A virus; test: In vivo antiviral activity against influenza strain A/WSN/1933 (H1N1) infected in BALB/c mouse assessed as weight regaining at 10 to 40 mg/kg, IG treated 12 hrs after infection measured on 9 dpi; assay type: functional, organism-based; conditions: dose 10-40 mg/kg, time 9.0 day
[38] = test system: Influenza A virus; test: In vivo antiviral activity against influenza strain A/WSN/1933 (H1N1) infected in BALB/c mouse assessed as increase in mouse survival at 10 to 40 mg/kg, IG treated 12 hrs after infection measured on 9 dpi; assay type: functional, organism-based; conditions: dose 10-40 mg/kg, time 9.0 day
[39] = test system: Influenza A virus; test: In vivo antiviral activity against influenza strain A/WSN/1933 (H1N1) infected in BALB/c mouse assessed as inhibition of virus-induced inflammatory cytokine IFNgamma level at 10 to 40 mg/kg, IG treated 12 hrs after infection measured on 9 dpi; assay type: functional, organism-based; conditions: dose 10-40 mg/kg, time 9.0 day
[40] = test system: Influenza A virus; test: In vivo antiviral activity against influenza strain A/WSN/1933 (H1N1) infected in BALB/c mouse assessed as inhibition of virus-induced inflammatory cytokine IL-6 level at 10 to 40 mg/kg, IG treated 12 hrs after infection measured on 9 dpi; assay type: functional, organism-based; conditions: dose 10-40 mg/kg, time 9.0 day
[41] = test system: Influenza A virus; test: In vivo antiviral activity against influenza strain A/WSN/1933 (H1N1) infected in BALB/c mouse assessed as inhibition of virus-induced inflammatory cytokine TNF-alpha level at 10 to 40 mg/kg, IG treated 12 hrs after infection measured on 9 dpi; assay type: functional, organism-based; conditions: dose 10-40 mg/kg, time 9.0 day
[42] = test system: Influenza A virus; test: In vivo antiviral activity against influenza strain A/WSN/1933 (H1N1) infected in BALB/c mouse assessed as inhibition of virus-induced inflammatory cytokine IL-1beta level at 10 to 40 mg/kg, IG treated 12 hrs after infection measured on 9 dpi; assay type: functional, organism-based; conditions: dose 10-40 mg/kg, time 9.0 day
[43] = test system: Influenza A virus; test: In vivo antiviral activity against influenza strain A/WSN/1933 (H1N1) infected in BALB/c mouse assessed as improvement in alveolar collapse in lungs at 20 to 40 mg/kg, IG treated 12 hrs after infection measured on 9 dpi by histopathological analysis; assay type: functional, organism-based; conditions: dose 20-40 mg/kg, time 9.0 day
[44] = test system: Influenza A virus; test: In vivo antiviral activity against influenza strain A/WSN/1933 (H1N1) infected in BALB/c mouse assessed as improvement in septal thickening in lungs at 20 to 40 mg/kg, IG treated 12 hrs after infection measured on 9 dpi by histopathological analysis; assay type: functional, organism-based; conditions: dose 20-40 mg/kg, time 9.0 day
[45] = test system: Influenza A virus; test: In vivo antiviral activity against influenza strain A/WSN/1933 (H1N1) infected in BALB/c mouse assessed as improvement in alveolar collapse in lungs at 10 to 20 mg/kg, IG treated 12 hrs after infection measured on 9 dpi by histopathological analysis; assay type: functional, organism-based; conditions: dose 10-20 mg/kg, time 9.0 day
[46] = test system: Influenza A virus; test: In vivo antiviral activity against influenza strain A/WSN/1933 (H1N1) infected in BALB/c mouse assessed as improvement in septal thickening in lungs at 10 to 20 mg/kg, IG treated 12 hrs after infection measured on 9 dpi by histopathological analysis; assay type: functional, organism-based; conditions: dose 10-20 mg/kg, time 9.0 day
[47] = test system: Influenza A virus; test: In vivo antiviral activity against influenza strain A/WSN/1933 (H1N1) infected in BALB/c mouse assessed as reduction in overall inflammation in lungs at 10 to 20 mg/kg, IG treated 12 hrs after infection measured on 9 dpi by histopathological analysis; assay type: functional, organism-based; conditions: dose 10-20 mg/kg, time 9.0 day

O=C1c2c(O)c(=O)ccn2N([C@@H](c2ccc(F)c(F)c2)c2cccs2)[C@@H]2COCCN12
EC50 [1]: 0.00188 µM | EC50 [2]: 0.00477 µM | CC50 at 48 h [3]: 34.2 µM | selectivity ratio [4]: 18200 | selectivity ratio [5]: 7180 | CC50 at 48 h [6]: 13.8 µM | CC50 at 48 h [7]: 41.6 µM | CC50 at 48 h [8]: > 50 µM | CC50 at 48 h [9]: 46.3 µM | half-life [10]: 4.3 h | Tmax [11]: 0.42 h | Cmax [12]: 4070 ng/mL | AUC(0-inf) [13]: 11100 ng·h/mL | MRT inf [14]: 2.77 h | bioavailability [15]: 71.6% | half-life [16]: 3.43 h | Tmax [17]: 4.8 min | Cmax [18]: 940 ng/mL | AUC(0-inf) [19]: 1230 ng·h/mL | MRT inf [20]: 2.98 h | half-life [21]: 12.8 h | half-life [22]: 38.5 h | Activity [23]: Dose-dependent-effect | inhibition [24]: Active | inhibition [25]: Active | inhibition [26]: Active | inhibition [27]: Active | CLint scaled [28]: 1.62 mL/min/kg | CLint scaled [29]: 2.38 mL/min/kg | EC50 [30]: 0.00249 µM

COC(=O)OCOc1c2n(ccc1=O)N([C@@H](c1ccc(F)c(F)c1)c1cccs1)[C@@H]1COCCN1C2=O
CC50 at 48 h [6]: 29.9 µM | CC50 at 48 h [7]: 60.1 µM | CC50 at 48 h [8]: > 50 µM | CC50 at 48 h [9]: > 50 µM | Activity [31]: Non-toxic | Activity [32]: Non-toxic | Activity [33]: Non-toxic | Activity [34]: Non-toxic | Activity [35]: Non-toxic | Activity [36]: Non-toxic | Activity [37]: Active; Surviving Animals Gradually Starting Weight Weight Beginning 9 Dpi | Activity [38]: Active | Activity [39]: Active | Activity [40]: Active | Activity [41]: Active | Activity [42]: Active | Activity [43]: Active | Activity [44]: Active | Activity [45]: inactive | Activity [46]: inactive | Activity [47]: Active
